Experimental data from ChEMBL document CHEMBL1132810, “Inhibition of vertebrate squalene epoxidase by isoprenyl gallates and phenylalkyl gallates” (Bioorg Med Chem Lett, 2000).

Target: Squalene monooxygenase (Rattus norvegicus, UniProt P52020)
Test: Compound was evaluated for its inhibitory activity against recombinant rat SE(squalene epoxidase)

Chain of Squalene monooxygenase (P52020 whole entry): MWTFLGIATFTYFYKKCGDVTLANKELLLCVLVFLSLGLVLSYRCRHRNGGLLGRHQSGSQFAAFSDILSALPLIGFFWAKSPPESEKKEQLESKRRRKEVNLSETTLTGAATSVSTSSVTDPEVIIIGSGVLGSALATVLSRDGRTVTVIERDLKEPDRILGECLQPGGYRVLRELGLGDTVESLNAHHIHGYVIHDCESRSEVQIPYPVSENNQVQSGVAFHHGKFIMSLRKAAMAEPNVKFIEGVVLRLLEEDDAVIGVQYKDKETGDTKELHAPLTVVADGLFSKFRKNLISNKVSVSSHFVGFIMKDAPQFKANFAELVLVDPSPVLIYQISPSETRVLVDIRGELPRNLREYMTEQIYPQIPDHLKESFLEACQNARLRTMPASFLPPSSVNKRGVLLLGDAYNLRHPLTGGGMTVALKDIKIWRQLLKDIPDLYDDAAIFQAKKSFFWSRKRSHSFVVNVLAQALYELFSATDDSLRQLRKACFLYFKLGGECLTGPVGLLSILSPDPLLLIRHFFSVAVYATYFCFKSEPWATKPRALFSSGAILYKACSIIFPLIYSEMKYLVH

IC50 [µM]	SMILES
5.1	CC(C)=CCC/C(C)=C/CC/C(C)=C/CC/C=C(\C)CC/C=C(\C)CCCOC(=O)c1cc(O)c(O)c(O)c1
12.5	O=C(OCCCCCCCCc1ccccc1)c1cc(O)c(O)c(O)c1
4.5	CC(C)=CCC/C(C)=C/CC/C(C)=C/CC/C(C)=C/COC(=O)c1cc(O)c(O)c(O)c1
11.9	O=C(OCCCCCCc1ccccc1)c1cc(O)c(O)c(O)c1
15.3	O=C(OCCCCCCCCCCc1ccccc1)c1cc(O)c(O)c(O)c1
61.3	O=C(OCCCCc1ccccc1)c1cc(O)c(O)c(O)c1
1.5	CC(C)=CCC/C(C)=C/CC/C(C)=C/COC(=O)c1cc(O)c(O)c(O)c1
0.061	CCCCCCCCCCCCOC(=O)c1cc(O)c(O)c(O)c1 [DODECYL GALLATE]
12.5	CC(C)=CCC/C(C)=C/COC(=O)c1cc(O)c(O)c(O)c1 [Geranyl gallate]

SMILES	IC50 [µM]
O=C(O[C@@H]1Cc2c(O)cc(O)cc2O[C@@H]1c1cc(O)c(O)c(O)c1)c1cc(O)c(O)c(O)c1 [EPIGALOCATECHIN GALLATE]	0.69
